Test results published in patent US4668686A, “Imidazoquinoline antithrombrogenic cardiotonic agents” (Bristol-Myers Company, priority 1986, dated 1987).
In brackets after ≈: the same amount, converted by molar mass. Read-outs that look alike come from different tables or passages of the source.

Key:
[1] = biological target: T1, cAMP phosphodiesterase (PDE) obtained from human platelets (Homo sapiens, UniProt Q14432); test: Inhibition of cyclic AMP phosphodiesterase; assay type: biochemical
T1 construct: obtained from human platelets; from tissue; host or cells: human platelets
T1 sequence (Q14432 whole entry): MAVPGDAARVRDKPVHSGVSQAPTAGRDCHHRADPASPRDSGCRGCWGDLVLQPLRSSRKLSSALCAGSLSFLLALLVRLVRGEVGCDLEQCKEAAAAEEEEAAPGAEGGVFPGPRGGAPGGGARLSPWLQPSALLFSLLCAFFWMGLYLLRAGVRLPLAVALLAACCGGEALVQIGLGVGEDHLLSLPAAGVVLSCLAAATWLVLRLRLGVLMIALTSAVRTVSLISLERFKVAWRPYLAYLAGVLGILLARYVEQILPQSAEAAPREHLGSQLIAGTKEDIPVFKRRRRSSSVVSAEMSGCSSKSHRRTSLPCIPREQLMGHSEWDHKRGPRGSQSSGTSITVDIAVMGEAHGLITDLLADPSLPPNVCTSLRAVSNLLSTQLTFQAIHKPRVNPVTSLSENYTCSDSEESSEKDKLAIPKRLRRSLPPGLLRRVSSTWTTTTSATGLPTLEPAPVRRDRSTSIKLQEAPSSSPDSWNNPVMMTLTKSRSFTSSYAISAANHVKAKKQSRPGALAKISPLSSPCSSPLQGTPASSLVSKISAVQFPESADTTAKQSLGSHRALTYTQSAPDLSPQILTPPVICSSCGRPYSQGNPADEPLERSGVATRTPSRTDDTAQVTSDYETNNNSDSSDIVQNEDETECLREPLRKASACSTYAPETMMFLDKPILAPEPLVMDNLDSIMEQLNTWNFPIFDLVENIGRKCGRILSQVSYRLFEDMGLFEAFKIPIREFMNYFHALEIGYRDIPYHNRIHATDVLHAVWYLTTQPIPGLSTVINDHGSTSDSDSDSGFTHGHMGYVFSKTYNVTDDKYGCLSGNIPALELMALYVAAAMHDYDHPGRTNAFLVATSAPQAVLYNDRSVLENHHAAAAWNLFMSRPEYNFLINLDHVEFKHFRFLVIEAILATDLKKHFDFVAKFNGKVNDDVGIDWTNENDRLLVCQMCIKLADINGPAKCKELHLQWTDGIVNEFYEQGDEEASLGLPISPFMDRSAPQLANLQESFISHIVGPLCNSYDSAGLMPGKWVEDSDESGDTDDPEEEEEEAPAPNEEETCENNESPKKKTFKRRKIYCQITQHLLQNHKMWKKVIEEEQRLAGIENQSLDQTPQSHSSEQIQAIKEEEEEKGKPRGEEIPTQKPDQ
Description: This assay is carried out essentially as described by Thompson, et al., Methods in Enzymology, 38, 205-212 (1974). Briefly, tritium labeled cyclic adenosine monophosphate (cAMP) is incubated with a phosphodiesterase (PDE) enzynme obtained from human platelets which converts a portion of the cAMP to 5'AMP in culture tubes. This reaction is terminated by submerging the tubes in a boiling water bath after which they are placed on ice and an aliquot of snake venom is added to each tube. This, during a second incubation, converts the 5'AMP to adenosine. Ion exchange resin is added to bind the remaining cyclic AMP. The tubes are centrifuged to sediment the resin and a portion of the clear supernatent (which contains radioactive adenosine) is counted in a liquid scintillation counter. The cAMP phosphodiesterase inhibition activity of a test agent is determined by pre-incubating the PDE enzyme preparation with the test agent.

[2] = tested on: platelet aggregation vs. ADP; test: Inhibition of platelet aggregation following oral administration (Ex vivo); assay type: in vivo; settings: Rattus norvegicus, rats, 2 hours after dosing
Description: This test is sometimes referred to in the art as an Ex vivo method and was initially described by Fleming, et al., Arch. Int. Pharmacodyn. Ther., 199, 164 (1972). Briefly, the assay is essentially carried out as follows. Aggregometry is performed in vitro as previously described on platelet rich plasma samples obtained from rats dosed with either test compounds or the vehicle. In all cases, activity is determined 2 hours after the drug is administered orally at various doses by gavage as a suspension in […] plus a few drops of Tween 20.

[3] = tested on: ADP-induced platelet aggregation; test: In vitro inhibition of ADP-induced platelet aggregation (aggregometer, rabbit PRP); assay type: cell-based; settings: Oryctolagus cuniculus, read-out: Platelet Inhibition In Vitro - Rabbit PRP EC50 vs. ADP
Description: (§1) The aggregometer method of Born (1), as modified by Mustard, et al. (2) was used to assess the in vitro activity of the various compounds as to inhibition of adenosine diphosphate (ADP) and collagen-induced platelet aggregation. Platelet rich plasma (PRP) was separated by centrifugation from citrated (3.8 percent) rabbit blood. […] The various compounds tested were dissolved in dimethylsulfoxide (DMSO) so that 5 mcl added to the platelet rich plasma would yield the desired test concentration. Vehicle control trials were done and compared with aggregation induced in platelet rich plasma containing various concentrations of the test compounds. Dose response curves were obtained and Effective Concentration (EC50) values calculated.

[4] = tested on: collagen-induced platelet aggregation; test: In vitro inhibition of collagen-induced platelet aggregation (aggregometer, rabbit PRP); assay type: cell-based; settings: Oryctolagus cuniculus, read-out: Platelet Inhibition In Vitro - Rabbit PRP EC50 vs. collagen
Description: as §1

[5] = tested on: right ventricular contractile force (RVCF); test: In vivo inotropic activity (right ventricular contractile force, anesthetized ferrets); settings: Mustela putorius, intraduodenal, read-out: Inotropic Activity In Vivo - Ferret % Change RVCF
Description: This test is carried out in ferrets as follows.
Fasted anesthetized ferrets are instrumented to study hemodynamic parameters as well as right ventricular contractile force using a Walton-Brodie open strain guage arch. Drugs are administered intraduodenally as solutions in DMSO (1 mL or less) and effects on myocardial contractile force and other parameters are monitored for 60 minutes after dosing. Changes in contractile force in response to drug treatment are expressed in terms of percent change from predose control.

[6] = 3 mg/kg, i.d., mean ± standard error when n more than 1

Compound: O=c1[nH]c2cc3ccc(C(F)(F)F)cc3nc2[nH]1 [Example 25, 1,3-Dihydro-6-(trifluoromethyl)-2H-imidazo[4,5-b]quinolin-2-one]
- IC50 [1]: 300 nM
- ED50 [2]: > 10 mg/kg
- EC50 [3]: 0.4 µg/mL (≈ 1.58 µM)
- EC50 [4]: 0.7 µg/mL (≈ 2.76 µM)

Compound: OCCN(CCO)c1nc(N2CCCCC2)c2nc(N(CCO)CCO)nc(N3CCCCC3)c2n1 [dipyridamole, reference compound]
- ED50 [2]: > 100 mg/kg
- EC50 [3]: > 512 µg/mL

Compound: COc1ccc2nc3[nH]c(=O)[nH]c3cc2c1 [Example 12, 7-Methoxy-1,3-dihydro-2H-imidazo[4,5-b]quinolin-2-one]
- EC50 [4]: 0.02 µg/mL (≈ 0.0929 µM)
- change in vivo at 3 mg/kg [5, 6]: 11 ± 4%

Compound: Cc1cccc2c1CC1C(=N2)NC(=O)N1C (centres unmarked) [Example 36, 1,3,9,9a-Tetrahydro-1,8-dimethyl-2H-imidazo[4,5-b]quinolin-2-one]
- EC50 [3]: 20 µg/mL (≈ 92.9 µM)
- EC50 [4]: 12 µg/mL (≈ 55.7 µM)

Compound: Cc1[nH]c(=O)c(C#N)cc1-c1ccncc1 [milrinone, reference compound]
- change in vivo at 3 mg/kg [5]: 52%

Compound: Cc1ccc2c(c1C)CC1NC(=O)NC1=N2 (centres unmarked) [Example 35, 7,8-Dimethyl-1,3,9,9a-tetrahydro-2H-imidazo-[4,5-b]quinolin-2-one]
- IC50 [1]: 30 nM
- ED50 [2]: > 10 mg/kg
- EC50 [3]: 0.1 µg/mL (≈ 0.465 µM)
- EC50 [4]: 0.04 µg/mL (≈ 0.186 µM)

Compound: Cc1cccc2c1CC1NC(=O)NC1=N2 (centres unmarked) [Example 20-3, 8-methyl-1,3,9,9a-tetrahydro-2H-imidazo[4,5-b]quinolin-2-one]
- IC50 [1]: 100 nM
- EC50 [3]: 0.05 µg/mL (≈ 0.248 µM)
- EC50 [4]: 0.03 µg/mL (≈ 0.149 µM)
- change in vivo at 0.3 mg/kg ([5]; 0.3 mg/kg, i.d.): 30 ± 5%
- change in vivo at 3 mg/kg [5, 6]: 15 ± 4%

Compound: O=c1[nH]c2cc3cc(Br)ccc3nc2[nH]1 [Example 22, 7-Bromo-1,3-dihydro-2H-imidazo[4,5-b]quinolin-2-one]
- IC50 [1]: 100 nM
- EC50 [3]: 0.3 µg/mL (≈ 1.14 µM)
- EC50 [4]: 0.2 µg/mL (≈ 0.757 µM)
